Data reported in PubChem BioAssay (NCI).
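Exposure lasted 48 hours, with cells grown in 96-well plates and compounds tested at five concentrations. Definition used: TGI = concentration required for complete inhibition of growth.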

Tests used:
Test in all cases: inhibition of tumour cell growth, NCI panel, 48 h
[1] = test system: HOP-62 NSCLC
[2] = test system: CCRF-CEM leukemia
[3] = test system: M14 melanoma
[4] = test system: DLD-1 colon
[5] = test system: NCI-H226 lung
[6] = test system: SK-MEL-2 melanoma
[7] = test system: EKVX NSCLC
[8] = test system: HOP-92 NSCLC
[9] = test system: SN12C renal
[10] = test system: XF 498 CNS
[11] = test system: SNB-78 CNS
[12] = test system: 786-0 renal
[13] = test system: OVCAR-5 ovarian
[14] = test system: HT29 colon
[15] = test system: OVCAR-3 ovarian
[16] = test system: U251 CNS
[17] = test system: NCI-H460 lung
[18] = test system: SK-MEL-28 melanoma
[19] = test system: NCI-H522 lung
[20] = test system: COLO 205 colon
[21] = test system: HCC-2998 colon
[22] = test system: RPMI-8226 leukemia
[23] = test system: SF-295 CNS
[24] = test system: OVCAR-8 ovarian
[25] = test system: SK-MEL-5 melanoma
[26] = test system: SNB-19 CNS
[27] = test system: TK-10 renal
[28] = test system: UACC-257 melanoma
[29] = test system: ACHN renal
[30] = test system: MOLT-4 leukemia
[31] = test system: HOP-18 NSCLC
[32] = test system: MALME-3M melanoma
[33] = test system: HL-60(TB) leukemia
[34] = test system: A549 NSCLC
[35] = test system: SF-268 CNS
[36] = test system: KM12 colon
[37] = test system: LOX IMVI melanoma
[38] = test system: OVCAR-4 ovarian
[39] = test system: SNB-75 CNS
[40] = test system: UO-31 renal
[41] = test system: K-562 leukemia
[42] = test system: NCI-H23 lung
[43] = test system: HCT-15 colon
[44] = test system: CAKI-1 renal
[45] = test system: SW-620 colon
[46] = test system: RXF 393 renal
[47] = test system: KM20L2 colon
[48] = test system: DMS 273 small cell lung
[49] = test system: SF-539 CNS
[50] = test system: DMS 114 small cell lung
[51] = test system: M19-MEL melanoma
[52] = test system: A498 renal
[53] = test system: IGROV1 ovarian
[54] = test system: SK-OV-3 ovarian
[55] = test system: UACC-62 melanoma
[56] = test system: LXFL 529 NSCLC
[57] = test system: SR leukemia
[58] = test system: HCT-116 colon

Measured: TGI

CCCC(=O)CC(C)C(=O)C(=O)NC12CC3CC(CC(C3)C1)C2 (configuration not stated)
not listed: [49] | [50] | [51] | [52] | [53] | [54] | [55] | [56] | [57] | [58]
> 100 µM: all other assays above

O=C1NC(=O)C2C(=O)NC(=O)C1C2Cc1ccco1 (configuration not stated)
not listed: [1] | [16] | [31] | [56] | [57] | [58]
> 100 µM: all other assays above

N#Cc1ccc(Sc2nc3ccccc3[nH]2)cc1
not listed: [3] | [10] | [15] | [21] | [22] | [39] | [43] | [47] | [52] | [58]
> 100 µM: all other assays above

Nc1nc(=S)c2c(ncn2CCO)[nH]1
not listed: [10] | [30] | [42] | [57]
> 100 µM: all other assays above
